In brackets after ≈: the same amount, converted by molar mass. Bridge positions count the residues as written; N and C are the ends. Square brackets hold non-standard residues; d marks the D form. Peptide text beside a SMILES is read from it. I, II: the chains in the order shown. Ahx = NCCCCCC(=O)O
Experiments:
[1] = test system: clinical isolates of Gram-negative bacteria (Klebsiella pneumoniae, Pseudomonas aeruginosa); assay: Therapeutic index, Gram-negative clinical isolates
Source text: We determined the therapeutic index of each peptide, which we defined as the ratio of Maximum Hemolytic Activity (Hmax) to MIC50 (Hmax/MIC50).
The results are shown in Table 7 (Gram-positive) and Table 8 (Gram-negative). Regarding the Gram-positive bacteria, the palindromic, dimeric and tetrameric peptides were active chiefly against S. aureus. This trend was consistent with results of the experiments on the ATCC strains, in which these peptides were only active against the sensitive strain of the […] bacteria.

[2] = test system: Klebsiella pneumoniae clinical isolate 50,424; assay type: cell-based
Protocol: (§1) For the clinical isolates, we used 20 different isolates from the Public Health Reference Laboratory collection of the Secretaría de Salud del Distrito (SdSD; Bogotá, Colombia). The samples were collected from June to December 2016. For each isolate, the patient parameters (age, gender and location) and the culture site were recorded for epidemiologic monitoring (Table 1). All isolates had been previously tested for antibiotic sensitivity at the Public Health Microbiology Laboratory using either the Phoenix™ system (Gram-positive) or the VITEK 2 system (Gram-negative).
(§2) We screened all five peptides against the ATCC reference strains and the clinical isolates according to Method M7-A7 of the National Committee for Clinical Laboratory Standards (CLSI, [2007]). The MIC50 and MBC values were determined using a broth microdilution and growth inhibition method previously reported by Leon-Calvijo et al. ([2015]), with some modifications (Wiegand et al., [2008]). Briefly, the MIC50 experiments comprised a liquid-inhibition growth assay in a sterile, untreated, 96-well flat-bottom tissue culture plate. The bacteria were cultured overnight n Mueller Hinton agar; three colonies were transferred to 8 mL of Mueller Hilton broth and incubated at 37°C until the mid-exponential phase of growth. The turbidity of the cultures was measured and adjusted spectrophotometrically to a McFarland standard of 0.5, and then diluted to a final concentration of 5 × 10^7 colony forming units (CFU) per well. Stock solutions (2,000 μM) of each test peptide were serially diluted to final concentrations (per well) of 200, 100, 50, 25, 12.5, and 6.25 μM. Each concentration was evaluated in duplicate and each assay was performed in triplicate.
(§3) Wells containing Mueller Hilton broth with bacterial inoculum only served as bacterial-growth controls. Additional controls included Mueller Hilton broth alone (as blank) and Mueller Hilton broth with ciprofloxacin (2 μg/mL; as positive control). The microplate was incubated for 24 h at 37°C, and growth inhibition was measured by monitoring the optical density at 620 nm (OD620). The MIC50 was defined as the peptide concentration at which bacterial growth was inhibited by 50%.
(§4) To determine the MBC, an aliquot from each well of the MIC50 assay was spread onto Mueller Hilton agar. After 18 h at 37°C, the concentration that inhibited bacterial growth was determined. Each of these tests was performed four times. MBC was defined as the lowest concentration of peptide at which the number of bacteria was reduced by 99.9% in vitro (European Committee for Antimicrobial Susceptibility Testing, [2000]).

[3] = test system: Klebsiella pneumoniae clinical isolate 49,644; assay type: cell-based
Protocol: as §1, §2, §3, §4

[4] = test system: Pseudomonas aeruginosa clinical isolate 48,221; assay type: cell-based
Protocol: as §1, §2, §3, §4

[5] = test system: Enterococcus faecium clinical isolate 1,462; assay type: cell-based
Protocol: as §1, §2, §3, §4

[6] = test system: Enterococcus faecium clinical isolate 1,461; assay type: cell-based
Protocol: as §1, §2, §3, §4

[7] = test system: Enterococcus faecium clinical isolate 1,225; assay type: cell-based
Protocol: as §1, §2, §3, §4

[8] = test system: Pseudomonas aeruginosa clinical isolate 47,661; assay type: cell-based
Protocol: as §1, §2, §3, §4

[9] = test system: Klebsiella pneumoniae clinical isolate 50,181; assay type: cell-based
Protocol: as §1, §2, §3, §4

[10] = test system: Enterococcus faecium clinical isolate 550; assay type: cell-based
Protocol: as §1, §2, §3, §4

[11] = test system: Klebsiella pneumoniae clinical isolate 51,009; assay type: cell-based
Protocol: as §1, §2, §3, §4

[12] = test system: Staphylococcus aureus clinical isolate 43,337; assay type: cell-based
Protocol: as §1, §2, §3, §4

[13] = test system: Pseudomonas aeruginosa clinical isolate 48,220; assay type: cell-based
Protocol: as §1, §2, §3, §4

[14] = test system: Staphylococcus aureus clinical isolate 52,013; assay type: cell-based
Protocol: as §1, §2, §3, §4

[15] = test system: Pseudomonas aeruginosa clinical isolate 48,526; assay type: cell-based
Protocol: as §1, §2, §3, §4

[16] = test system: Staphylococcus aureus clinical isolate 43,062; assay type: cell-based
Protocol: as §1, §2, §3, §4

MIC50 ([2]; clinical isolate 50,424, 24 h): 5.8 µM (≈ 12.7 µg/mL) | MIC50 ([3]; clinical isolate 49,644, 24 h): 12.3 µM (≈ 27 µg/mL) | MIC50 ([4]; clinical isolate 48,221, 24 h): 64.2 µM (≈ 141 µg/mL) | MIC50 ([5]; clinical isolate 1,462, 24 h): 49.8 µM (≈ 109 µg/mL) | MIC50 ([6]; clinical isolate 1,461, 24 h): >100 µM | MIC50 ([7]; clinical isolate 1,225, 24 h): >100 µM | MIC50 ([8]; clinical isolate 47,661, 24 h): 13.4 µM (≈ 29.4 µg/mL) | MIC50 ([9]; clinical isolate 50,181, 24 h): 6.6 µM (≈ 14.5 µg/mL) | MIC50 ([10]; clinical isolate 550, 24 h): >100 µM | MIC50 ([11]; clinical isolate 51,009, 24 h): 5.6 µM (≈ 12.3 µg/mL) | MIC50 ([12]; clinical isolate 43,337, 24 h): 13.5 µM (≈ 29.7 µg/mL) | MIC50 ([13]; clinical isolate 48,220, 24 h): 50.0 µM (≈ 110 µg/mL) | MIC50 ([14]; clinical isolate 52,013, 24 h): 12.6 µM (≈ 27.7 µg/mL) | MIC50 ([15]; clinical isolate 48,526, 24 h): 36.3 µM (≈ 79.7 µg/mL) | MIC50 ([16]; clinical isolate 43,062, 24 h): 13.5 µM (≈ 29.7 µg/mL)
Structure (SMILES): N=C(N)NCCC[C@H](NC(=O)[C@H](Cc1c[nH]c2ccccc12)NC(=O)[C@H](CCC(N)=O)NC(=O)[C@H](Cc1c[nH]c2ccccc12)NC(=O)[C@H](CCCNC(=N)N)NC(=O)[C@@H](N)CCCNC(=N)N)C(=O)NCCCC[C@H](NC(=O)[C@H](CCCNC(=N)N)NC(=O)[C@H](Cc1c[nH]c2ccccc12)NC(=O)[C@H](CCC(N)=O)NC(=O)[C@H](Cc1c[nH]c2ccccc12)NC(=O)[C@H](CCCNC(=N)N)NC(=O)[C@@H](N)CCCNC(=N)N)C(=O)NCCCCCC(N)=O [LfcinB (20–25)2] (I: H-RRWQWRK[Ahx]-NH2 / II: H-RRWQWR; amide I:7-II:C; N-terminus assumed)
Gm, geometric mean of MIC50 values [1]: 16.8 µM | Fold (GM peptide / GM tetrameric peptide) ([1]; Gram-negative clinical isolates): 1.7 | MBC ([2]; clinical isolate 50,424, 18 h): >100 µM | MBC ([3]; clinical isolate 49,644, 18 h): 50.0 µM (≈ 110 µg/mL) | MBC ([4]; clinical isolate 48,221, 18 h): >100 µM | MBC ([5]; clinical isolate 1,462, 18 h): >100 µM | MBC ([6]; clinical isolate 1,461, 18 h): >100 µM | MBC ([7]; clinical isolate 1,225, 18 h): >100 µM | MBC ([8]; clinical isolate 47,661, 18 h): >100 µM | MBC ([9]; clinical isolate 50,181, 18 h): 100.0 µM (≈ 220 µg/mL) | MBC ([10]; clinical isolate 550, 18 h): >100 µM | MBC ([11]; clinical isolate 51,009, 18 h): 25.0 µM (≈ 54.9 µg/mL) | MBC ([12]; clinical isolate 43,337, 18 h): 25.0 µM (≈ 54.9 µg/mL) | MBC ([13]; clinical isolate 48,220, 18 h): 50.0 µM (≈ 110 µg/mL) | MBC ([14]; clinical isolate 52,013, 18 h): 25.0 µM (≈ 54.9 µg/mL) | MBC ([15]; clinical isolate 48,526, 18 h): >100 µM | MBC ([16]; clinical isolate 43,062, 18 h): 50.0 µM (≈ 110 µg/mL)
